Results as given in ChEMBL document CHEMBL4680211, “Synthesis and structure-activity relationship study of water-soluble carbazole sulfonamide derivatives as new anticancer agents” (Eur J Med Chem, 2020).

What was measured:
[1] = Aqueous solubility of compound in water at pH 7.4 incubated at 20 degC by HPLC-UV analysis; type: physicochemical
Bel-7402 = test: Antiproliferative activity against human Bel-7402 cells measured after 48 hrs by SRB assay; type: functional, cell-based
MCF7 = test: Antiproliferative activity against human MCF7 cells measured after 48 hrs by SRB assay; type: functional, cell-based
HepG2 [2] = test: Antiproliferative activity against human HepG2 cells measured after 48 hrs by SRB assay; type: functional, cell-based
[3] = Acute toxicity in iv dosed Kunming mouse measured for 7 days; type: organism-based; conditions: in vivo, time 7 day
[4] = Acute toxicity in Kunming mouse assessed as survival at 50 mg/kg, iv measured for 7 days relative to control; type: organism-based; conditions: in vivo, time 7 day
HepG2 [5] = test: Antitumor activity against human HepG2 cells xenografted in BALB/c nude mouse assessed as tumor growth inhibition at 10 mg/kg, iv qod for 14 to 29 days relative to control; type: functional; conditions: time 14-29 day, read-out: TGI
[6] = Acute toxicity in Kunming mouse assessed as survival at 200 mg/kg, iv measured for 7 days relative to control; type: organism-based; conditions: in vivo, time 7 day
[7] = Acute toxicity in Kunming mouse assessed as survival at 100 mg/kg, iv measured for 7 days relative to control; type: organism-based; conditions: in vivo, time 7 day
HepG2 [8] = test: Antitumor activity against human HepG2 cells xenografted in BALB/c nude mouse assessed as tumor volume at 10 mg/kg, iv qod for 14 to 29 days measured on day 1 (reference value: 154.04 +/- 3120); type: functional; conditions: time 14-29 day
[9] = Acute toxicity in Kunming mouse assessed as survival at 25 mg/kg, iv measured for 7 days relative to control; type: organism-based; conditions: in vivo, time 7 day
HepG2 [10] = test: Antitumor activity against human HepG2 cells xenografted in BALB/c nude mouse assessed as tumor volume at 10 mg/kg, iv qod for 14 to 29 days measured on day 29 (reference value: 2,838.93 +/- 737.40); type: functional; conditions: time 14-29 day
[11] = Toxicity in human HepG2 cells xenografted BALB/c nude mouse assessed as change in tumor weight at 10 mg/kg, iv qod for 14 to 29 days (reference value: 4.52 g); type: organism-based; conditions: in vivo, time 14-29 day
[12] = Acute toxicity in Kunming mouse assessed as survival at 75 mg/kg, iv measured for 7 days relative to control; type: organism-based; conditions: in vivo, time 7 day
HepG2 [13] = test: Antitumor activity against human HepG2 cells xenografted in BALB/c nude mouse assessed as reduction in tumor volume administered for 29 days by caliper method; type: functional, cell-based; conditions: time 29.0 day
[14] = Toxicity in human MDA-MB-231 cells xenografted BALB/c nude mouse assessed as effect on body weight at 60 mg/kg, ip qod for 14 to 29 days measured every two days during compound dosing; type: organism-based; conditions: in vivo, time 14-29 day
MDA-MB-231 = test: Antitumor activity against human MDA-MB-231 cells xenografted in BALB/c nude mouse assessed as reduction in tumor burden at 60 mg/kg, ip qod for 14 to 29 days relative to control; type: functional; design: scale not given: the % may be the effect or the level left; conditions: time 14-29 day
HepG2 [15] = test: Antitumor activity against human HepG2 cells xenografted in BALB/c nude mouse assessed as tumor growth inhibition at 50 mg/kg, iv qod for 14 to 29 days relative to control; type: functional; conditions: time 14-29 day, read-out: TGI
HepG2 [16] = test: Antitumor activity against human HepG2 cells xenografted in iv dosed BALB/c nude mouse assessed as tumor growth inhibition administered every other day for 14 to 29 days; type: functional, organism-based; conditions: time 14-29 day

SMILES	solubility [1] [mg/mL]	IC50 (Bel-7402; Homo sapiens, Bel-7402, 48 h) [µM]	IC50 (MCF7; Homo sapiens, MCF7, 48 h) [µM]	IC50 (HepG2 [2]; Homo sapiens, HepG2, 48 h) [µM]	other results
COc1ccc(N(CCOC(=O)CN2CCN(C)CC2)S(=O)(=O)c2ccc3c(c2)c2ccccc2n3C)c(OC)n1.Cl	> 30	–	–	–	–
COc1ccc(N(CCO)S(=O)(=O)c2ccc3c(c2)c2ccccc2n3C)c(OC)n1.Cl	0.15	–	–	–	–
COc1ccc(N(CCN2CCCCC2)S(=O)(=O)c2ccc3c(c2)c2ccccc2n3C)c(OC)n1.Cl	0.58	–	–	–	–
COc1ccc(N(CCO)S(=O)(=O)c2ccc3c(c2)c2ccccc2n3C)c(OC)n1	–	4.13	1.43	4.04	–
COc1ccc(N(CCOC(=O)CN2CCN(C)CC2)S(=O)(=O)c2ccc3c(c2)c2ccccc2n3C)c(OC)n1	–	4.92	5.98	4.3	–
COc1ccc(N(CCOP(=O)([O-])[O-])S(=O)(=O)c2ccc3c(c2)c2ccccc2n3C)c(OC)n1.Cl.[Na+].[Na+]	22.4	–	–	–	–
COc1ccc(N(CCN2CCC(N3CCCC3)CC2)S(=O)(=O)c2ccc3c(c2)c2ccccc2n3C)c(OC)n1	–	7.81	21	3.37	LD50 at 168 h [3]: 70.7 mg/kg; survival at 168 h [4]: 83.3%; inhibition in vivo at 10 mg/kg (HepG2 [5]): 51.5%; survival at 168 h [6]: 0%; survival at 168 h [7]: 16.7%; Activity (HepG2 [8]): 85.64 mm3; survival at 168 h [9]: 100%; Activity (HepG2 [10]): 1237.34 mm3; Activity [11]: 1.72 g
COc1ccc(N(CCN(C)C)S(=O)(=O)c2ccc3c(c2)c2ccccc2n3C)c(OC)n1	–	5.32	5.33	1.46	LD50 at 168 h [3]: 71.9 mg/kg; survival at 168 h [12]: 66.7%; survival at 168 h [4]: 83.3%; inhibition in vivo at 10 mg/kg (HepG2 [5]): 52.8%; survival at 168 h [7]: 0%; Activity (HepG2 [8]): 90.79 mm3; survival at 168 h [9]: 100%; Activity (HepG2 [10]): 1322.82 mm3; Activity [11]: 0.87 g
COc1ccc(N(CCNC(=O)CN)S(=O)(=O)c2ccc3c(c2)c2ccccc2n3C)c(OC)n1.Cl.Cl	> 30	–	–	–	–
COc1ccc(N(CCCN2CCC(N3CCCC3)CC2)S(=O)(=O)c2ccc3c(c2)c2ccccc2n3C)c(OC)n1.Cl	> 30	–	–	–	–
COc1ccc(N(CCCN(C)C)S(=O)(=O)c2ccc3c(c2)c2ccccc2n3C)c(OC)n1.Cl	20.5	–	–	–	–
COc1ccc(N(CCOC(N)=O)S(=O)(=O)c2ccc3c(c2)c2ccccc2n3C)c(OC)n1.Cl	0.47	–	–	–	–
COc1ccc(N(CCN2CCC3(CCN(C)CC3)C2)S(=O)(=O)c2ccc3c(c2)c2ccccc2n3C)c(OC)n1.Cl	> 30	–	–	–	–
COc1ccc(N(CCOP(=O)(O)O)S(=O)(=O)c2ccc3c(c2)c2ccccc2n3C)c(OC)n1 [listing 1 of 2 here]	–	–	–	–	Activity (HepG2 [13]): Dose-dependent effect
COc1ccc(N(CCN)S(=O)(=O)c2ccc3c(c2)c2ccccc2n3C)c(OC)n1.Cl	0.24	–	–	–	–
COc1ccc(N(CC(N)=O)S(=O)(=O)c2ccc3c(c2)c2ccccc2n3C)c(OC)n1	–	3.56	4.28	1.97	–
COc1ccc(N(C(=O)CCN2CCCCC2)S(=O)(=O)c2ccc3c(c2)c2ccccc2n3C)c(OC)n1	–	0.73	1.16	0.35	Activity [14]: Non-Toxic; Activity (MDA-MB-231): 40.1%
COc1ccc(N(CCN)S(=O)(=O)c2ccc3c(c2)c2ccccc2n3C)c(OC)n1	–	4.38	6.63	4.75	–
COc1ccc(N(CCCN2CCN(C)CC2)S(=O)(=O)c2ccc3c(c2)c2ccccc2n3C)c(OC)n1.Cl	20.6	–	–	–	–
COc1ccc(/C=C\c2cc(OC)c(OC)c(OC)c2)cc1O [COMBRETASTATIN A4]	–	0.084	0.003	0.002	–
COc1ccc(N(C(=O)CCN2CCN(C)CC2)S(=O)(=O)c2ccc3c(c2)c2ccccc2n3C)c(OC)n1	–	0.2	0.17	0.07	–
COc1ccc(N(CCN2CCOCC2)S(=O)(=O)c2ccc3c(c2)c2ccccc2n3C)c(OC)n1.Cl	0.44	–	–	–	–
COc1ccc(N(CCCN(C)C)S(=O)(=O)c2ccc3c(c2)c2ccccc2n3C)c(OC)n1	–	10.8	7.15	2.73	–
COc1ccc(N(CCn2ccnc2)S(=O)(=O)c2ccc3c(c2)c2ccccc2n3C)c(OC)n1.Cl	21.5	–	–	–	–
COc1ccc(N(C(=O)CCN2CCCCC2)S(=O)(=O)c2ccc3c(c2)c2ccccc2n3C)c(OC)n1.Cl	18.6	–	–	–	–
COc1ccc(N(CCCn2ccnc2)S(=O)(=O)c2ccc3c(c2)c2ccccc2n3C)c(OC)n1.Cl	18.4	–	–	–	–
COc1ccc(NS(=O)(=O)c2ccc3c(c2)c2ccc(O)cc2n3C)c(OC)n1.Cl	0.0015	–	–	–	–

SMILES	solubility [1] [mg/mL]	IC50 (Bel-7402; Homo sapiens, Bel-7402, 48 h) [µM]	IC50 (MCF7; Homo sapiens, MCF7, 48 h) [µM]	IC50 (HepG2 [2]; Homo sapiens, HepG2, 48 h) [µM]	other results
COc1ccc(/C=C\c2cc(OC)c(OC)c(OC)c2)cc1OP(=O)(O)O [FOSBRETABULIN DISODIUM]	–	0.04	0.011	0.002	inhibition in vivo at 50 mg/kg (HepG2 [15]): 45.8%
COc1ccc(N(CCN2CCCC2)S(=O)(=O)c2ccc3c(c2)c2ccccc2n3C)c(OC)n1	–	4.98	5.7	3.19	–
COc1ccc(N(CCN2CCSCC2)S(=O)(=O)c2ccc3c(c2)c2ccccc2n3C)c(OC)n1.Cl	0.27	–	–	–	–
COc1ccc(N(CCn2ccnc2)S(=O)(=O)c2ccc3c(c2)c2ccccc2n3C)c(OC)n1	–	2.59	4.6	1.25	–
COc1ccc(NS(=O)(=O)c2ccc3c(c2)c2ccccc2n3C)c(OC)n1	< 0.001	–	0.68	0.095	–
COc1ccc(N(CCCn2ccnc2)S(=O)(=O)c2ccc3c(c2)c2ccccc2n3C)c(OC)n1	–	4.64	4.53	1.39	–
COc1ccc(N(CCN2CCN(C)CC2)S(=O)(=O)c2ccc3c(c2)c2ccccc2n3C)c(OC)n1	–	–	–	–	TGI (HepG2 [16]): Dose-dependent effect
COc1ccc(N(C(=O)CCN2CCN(C)CC2)S(=O)(=O)c2ccc3c(c2)c2ccccc2n3C)c(OC)n1.Cl	17.6	–	–	–	–
COc1ccc(N(CCN2CCSCC2)S(=O)(=O)c2ccc3c(c2)c2ccccc2n3C)c(OC)n1	–	4.1	4.61	1.36	–
COc1ccc(NS(=O)(=O)c2ccc3c(c2)c2ccc(OP(=O)([O-])[O-])cc2n3C)c(OC)n1.Cl.[Na+].[Na+]	> 30	–	–	–	–
COc1ccc(N(CCCN2CCC3(CCN(C)CC3)C2)S(=O)(=O)c2ccc3c(c2)c2ccccc2n3C)c(OC)n1.Cl	> 30	–	–	–	–
COc1ccc(N(CCNC(=O)CN)S(=O)(=O)c2ccc3c(c2)c2ccccc2n3C)c(OC)n1	–	2.17	1.6	1.26	–
COc1ccc(N(CCN(C)C)S(=O)(=O)c2ccc3c(c2)c2ccccc2n3C)c(OC)n1.Cl	29.1	–	–	–	–
COc1ccc(N(CCN2CCOCC2)S(=O)(=O)c2ccc3c(c2)c2ccccc2n3C)c(OC)n1	–	2.69	4.65	1.06	–
COc1ccc(N(CCOP(=O)(O)O)S(=O)(=O)c2ccc3c(c2)c2ccccc2n3C)c(OC)n1.Cl	1.75	–	–	–	–
COc1ccc(N(CCN2CCCC2)S(=O)(=O)c2ccc3c(c2)c2ccccc2n3C)c(OC)n1.Cl	0.6	–	–	–	–
COc1ccc(N(CCN2CCC(N3CCCC3)CC2)S(=O)(=O)c2ccc3c(c2)c2ccccc2n3C)c(OC)n1.Cl	> 30	–	–	–	–
COc1ccc(N(CCOP(=O)(O)O)S(=O)(=O)c2ccc3c(c2)c2ccccc2n3C)c(OC)n1 [listing 2 of 2 here]	–	–	–	–	IC50 (Bel-7402; bel-7402): 1.15 µM; IC50 (MCF7; mcf7): 1.01 µM; IC50 (HepG2 [2]; hepg2): 0.74 µM
COc1ccc(N(CCCN2CCC3(CCN(C)CC3)C2)S(=O)(=O)c2ccc3c(c2)c2ccccc2n3C)c(OC)n1	–	6.21	21.3	3.59	–
COc1ccc(N(CC(N)=O)S(=O)(=O)c2ccc3c(c2)c2ccccc2n3C)c(OC)n1.Cl	0.02	–	–	–	–
COc1ccc(N(CCCN2CCC(N3CCCC3)CC2)S(=O)(=O)c2ccc3c(c2)c2ccccc2n3C)c(OC)n1	–	6.24	15.8	3.89	–
COc1ccc(N(CCN2CCCCC2)S(=O)(=O)c2ccc3c(c2)c2ccccc2n3C)c(OC)n1	–	4.99	5.82	2.05	–
COc1ccc(N(CCN2CCC3(CCN(C)CC3)C2)S(=O)(=O)c2ccc3c(c2)c2ccccc2n3C)c(OC)n1	–	4.23	14.6	2.84	–
COc1ccc(N(CCOC(N)=O)S(=O)(=O)c2ccc3c(c2)c2ccccc2n3C)c(OC)n1	–	> 25	–	5.11	–
COc1ccc(N(CCN2CCN(C)CC2)S(=O)(=O)c2ccc3c(c2)c2ccccc2n3C)c(OC)n1.Cl	25.7	–	–	–	–
COc1ccc(N(CCCN2CCN(C)CC2)S(=O)(=O)c2ccc3c(c2)c2ccccc2n3C)c(OC)n1	–	11.6	21	5.6	–
